In patent US6358885B1, “Substituted phenylheterocyclic herbicides” (Mississippi State University, priority 1992, dated 2002):

Legend:
lambsquarters = assay: Test B preemergence/postemergence greenhouse plant response rating 0 to 10; format: in vivo, Chenopodium album; conditions: 0 to 10 scale
How it was run: (§1)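 Test chemicals, dissolved in a non-phytotoxic solvent, were applied to soil at planting and, at the same time, over foliage of seedlings at the one to four leaf stage.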

rice = assay: as above; format: in vivo, Oryza sativa; conditions: 0 to 10 scale
How it was run: as §1

soybean = assay: as above; format: in vivo, Glycine max; conditions: 0 to 10 scale
How it was run: as §1

wheat = assay: as above; format: in vivo, Triticum aestivum; conditions: 0 to 10 scale
How it was run: as §1

wild buckwheat [1] = assay: as above; format: in vivo, Polygonum convolvulus; conditions: 0 to 10 scale
How it was run: as §1

wild oat = assay: as above; format: in vivo, Avena fatua; conditions: 0 to 10 scale
How it was run: as §1

blackgrass = assay: Test C preemergence/postemergence greenhouse plant response rating 0 to 100; format: in vivo, Alopecurus myosuroides; conditions: POSTEMERGENCE; for Plant response rating, Blackgrass: 0 to 100 scale
How it was run: (§2)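 Compounds in non-phytotoxic solvent applied preemergence to sandy loam one day after planting, postemergence at the 1–4 leaf stage, or to ~2.5 cm floodwater over silt loam.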

downy brome = assay: as above; format: in vivo, Bromus tectorum; conditions: POSTEMERGENCE; for Plant response rating Downy Brome: 0 to 100 scale
How it was run: as §2

sorghum = assay: as above; format: in vivo, Sorghum bicolor; conditions: POSTEMERGENCE; for Plant response rating, Sorghum: 0 to 100 scale
How it was run: as §2

sugar beet = assay: as above; format: in vivo, Beta vulgaris; conditions: POSTEMERGENCE; for Plant response rating, Sugar beet: 0 to 100 scale
How it was run: as §2

wild buckwheat [2] = assay: as above; format: in vivo, Polygonum convolvulus; conditions: POSTEMERGENCE; for Plant response rating, Wild buckwheat: 0 to 100 scale
How it was run: as §2

barnyardgrass = assay: Test C flood test plant response rating 0 to 100; format: in vivo, Echinochloa crus-galli; conditions: for Plant response rating Barnyardgrass 2: flood test species listed under POSTEMERGENCE, 0 to 100 scale
How it was run: as §2

Fc1cc(Cl)c(OCCCl)cc1-c1nn2c(c1Cl)CCCC2 [Compound 49]
Plant response rating, Lambsquarter (lambsquarters; PREEMERGENCE, Rate 50 g/ha): 10 | Plant response rating, Lambsquarter (lambsquarters; Rate 200 g/ha, POSTEMERGENCE): 10 | Plant response rating, Lambsquarter (lambsquarters; Rate 200 g/ha, PREEMERGENCE): 10 | Plant response rating, Rice (rice; POSTEMERGENCE, Rate 50 g/ha): 5 | Plant response rating, Rice (rice; PREEMERGENCE, Rate 50 g/ha): 0 | Plant response rating, Rice (rice; Rate 200 g/ha, POSTEMERGENCE): 6 | Plant response rating, Rice (rice; Rate 200 g/ha, PREEMERGENCE): 0 | Plant response rating, Soybean (soybean; POSTEMERGENCE, Rate 50 g/ha): 8 | Plant response rating, Soybean (soybean; PREEMERGENCE, Rate 50 g/ha): 0 | Plant response rating, Soybean (soybean; Rate 200 g/ha, POSTEMERGENCE): 8 | Plant response rating, Soybean (soybean; Rate 200 g/ha, PREEMERGENCE): 3 | Plant response rating, Wheat (wheat; POSTEMERGENCE, Rate 50 g/ha): 5 | Plant response rating, Wheat (wheat; PREEMERGENCE, Rate 50 g/ha): 0 | Plant response rating, Wheat (wheat; Rate 200 g/ha, POSTEMERGENCE): 4 | Plant response rating, Wheat (wheat; Rate 200 g/ha, PREEMERGENCE): 2 | Plant response rating, Wild buckwheat (wild buckwheat [1]; POSTEMERGENCE, Rate 50 g/ha): 10 | Plant response rating, Wild buckwheat (wild buckwheat [1]; PREEMERGENCE, Rate 50 g/ha): 7 | Plant response rating, Wild buckwheat (wild buckwheat [1]; Rate 200 g/ha, POSTEMERGENCE): 10 | Plant response rating, Wild buckwheat (wild buckwheat [1]; Rate 200 g/ha, PREEMERGENCE): 10 | Plant response rating, Wild oat (wild oat; POSTEMERGENCE, Rate 50 g/ha): 3 | Plant response rating, Wild oat (wild oat; PREEMERGENCE, Rate 50 g/ha): 0 | Plant response rating, Wild oat (wild oat; Rate 200 g/ha, POSTEMERGENCE): 4 | Plant response rating, Blackgrass (blackgrass; 62 g/ha): 50 | Plant response rating, Blackgrass (blackgrass; 250 g/ha): 70 | Plant response rating (0 to 100), Blackgrass (blackgrass; Rate 4 g/ha): 10 | Plant response rating (0 to 100), Blackgrass (blackgrass; Rate 16 g/ha): 40 | Plant response rating Downy Brome (downy brome; 62 g/ha): 60 | Plant response rating Downy Brome (downy brome; 250 g/ha): 70 | Plant response rating (0 to 100), Downy Brome (downy brome; Rate 4 g/ha): 30 | Plant response rating (0 to 100), Downy Brome (downy brome; Rate 16 g/ha): 40 | Plant response rating, Sorghum (sorghum; 62 g/ha): 50 | Plant response rating, Sorghum (sorghum; 250 g/ha): 60 | Plant response rating (0 to 100), Sorghum (sorghum; Rate 4 g/ha): 30 | Plant response rating (0 to 100), Sorghum (sorghum; Rate 16 g/ha): 40 | Plant response rating, Sugar beet (sugar beet; 62 g/ha): 100 | Plant response rating, Sugar beet (sugar beet; 250 g/ha): 100 | Plant response rating (0 to 100), Sugar beet (sugar beet; Rate 4 g/ha): 100 | Plant response rating (0 to 100), Sugar beet (sugar beet; Rate 16 g/ha): 100 | Plant response rating, Wild buckwheat (wild buckwheat [2]; 62 g/ha): 100 | Plant response rating, Wild buckwheat (wild buckwheat [2]; 250 g/ha): 100 | Plant response rating (0 to 100), Wild buckwheat (wild buckwheat [2]; Rate 4 g/ha): 100 | Plant response rating (0 to 100), Wild buckwheat (wild buckwheat [2]; Rate 16 g/ha): 100 | Plant response rating (0 to 100), Barnyardgrass 2 (barnyardgrass; POSTEMERGENCE section, flood test, Rate 4 g/ha): 90 | Plant response rating (0 to 100), Barnyardgrass 2 (barnyardgrass; Rate 16 g/ha, under POSTEMERGENCE head (flood test species)): 100 | Plant response rating Barnyardgrass 2 (barnyardgrass; 62 g/ha): 100 | Plant response rating Barnyardgrass 2 (barnyardgrass; 250 g/ha): 100
